Assay results as given in patent publication US20120003156A1, “METHODS FOR TREATING NEOPLASIA BY INHIBITING LACTATE DEHYDROGENASE AND/OR NICOTINAMIDE PHOSPHORIBOSYLTRANSFERASE” (The Johns Hopkins University, priority 2008, published 2012).

Experiments:
LDHA [1] = biological target: T1, LDHA (Homo sapiens, UniProt P00338); experiment: Screen of 1200 FDA approved compounds for an inhibitor of LDHA; type: biochemical
From the text: Reduction of LDHA by siRNA induced oxidative stress and cell death. To determine whether a small molecule inhibitor of LDHA could be used to modulate tumor metabolism, 1200 FDA approved compounds were screened to identify an inhibitor of LDHA. […] As such, a series of compounds generated by Vander Jagt and coworkers, who were specifically interested in targeting malarial LDH (pLDH) (Deck et al., 1998; Yu et al., 2001) was screened. […]; 2,3-dihydroxy-6-methyl-7-(phenylmethyl)-4-propylnaphthalene-1-carboxylic acid, Pubchem ID: 10498042) and 11e (E; 2,3-dihydroxy-6-methyl-7-(methyl)-4-propylnaphthalene-1-carboxylic acid, Pubchem ID: 10265351). […]; Yu et al., 2001). […]

AMP kinase (AMPK) = experiment: Immunoblot of phospho-AMPK; type: cell-based, human; details: 20 hours of exposure
[2] = Side effects, hematology and blood chemistry in treated animals
P493 cells [3] = experiment: ATP levels, luciferin-luciferase-based assay; type: cell-based, human; details: 9 μM FX11 or 0.5 nM FK866, 20 hours
Protocol: P493 cells were treated with 9 μM FX11 or 0.5 nM FK866 for 20 hours and counted. ATP levels were determined by luciferin-luciferase-based assay (Promega) on aliquots containing equal number of cells according to standard protocol.

P493 cells [4] = experiment: Mitochondrial membrane potential by JC-1 flow cytometry; type: cell-based, human; details: 9 μM FX11 or/and FK866, 24 hours
From the text: The lipophilic cation dye (5,5′,6,6′-tetrachloro-1,1′,3,3′-tetraethylbenzimidazolcarbocyanine iodide, JC-1) (Invitrogen) was used to detect the loss of the mitochondrial membrane potential. The negative charge established by the intact mitochondrial membrane potential lets the lipophilic dye stain the mitochondria bright red which emits in channel 2 (FL2). When the mitochondrial membrane potential collapses, JC-1 remains in the cytoplasm in a green fluorescent monomeric emission in channel 1 (FL1). JC-1 reversibly changes its color from green to orange as membrane potentials increase (over values of 80-100 mV). 10^5 cells/ml were treated with 9 μM FX11 or/and FK866 for 24 hours. Stained cells were analyzed in FACScan flow cytometers (BD Bioscience).

P493 cells [5] = experiment: ROS measurement by DCFDA flow cytometry; type: cell-based, human
Protocol: The measurement of intracellular ROS production was measured by staining cells with 5-(and-6)-carboxy-2′,7′-dichlorodihydrofluorescein diacetate (carboxy-H2DCFDA; Molecular Probes) according to the manufacturer's instructions. 10^5 cells/ml were treated with 9 μM FX11 or FK866 for 24 hours. Stained cells were analyzed in FACScan flow cytometers (BD Bioscience).

[6] = system: P493 human lymphoma B cells; experiment: Human P493 B cell lymphoma xenograft; type: in vivo, SCID mice; details: treatment from 200 mm^3; daily IP 42 μg FX11 and/or 100 μg FK866; ten days
Protocol: The animal studies were performed according to the protocols approved by the Animal Care and Use Committee at Johns Hopkins University. In order to generate tumorigenesis study in xenograft model, 2.0×10^7 P493 human lymphoma B cells or 5×10^6 human pancreatic cancer cells were injected subcutaneously into male SCID mice (NCI) or athymic Hsd: RH-Foxn1nu mice (Harlan), respectively, as previously described (Feldmann et al., 2007; Gao et al., 2009; Gao et al., 2007). When the tumor volume reached 200 mm^3, groups of 5 mice were injected with control 2% DMSO or 42 μg FX11 and/or 100 μg FK866. The tumor volumes were measured using a digital caliper after 4, 7 and 10 days of treatment. Tumor volumes were calculated using the following formula: [length (mm)×width (mm)×width (mm)×0.52]. The entire experiment was repeated seven times.

[7] = system: P493 human lymphoma B cells; experiment: Cell population growth, trypan blue live cell count; type: cell-based
Protocol: P493 human lymphoma B cells were maintained in RPMI 1640 with 10% fetal bovine serum (FBS) and 1% penicillin-streptomycin. P198 human pancreatic cancer cells; RCC4, RCC4-VHL human renal carcinoma cells; MCF-7 and MDA-MB-453 breast cancer cells were maintained in high glucose (4.5 mg/ml) DMEM with 10% FBS and 1% penicillin-streptomycin. Non-hypoxic cells (20% O2) were maintained at 37° C. in a 5% CO2, 95% in an air incubator. Hypoxic cells (1% O2) were maintained in a controlled atmosphere chamber (PLAS-LABS, Lansing, Mich.) with a gas mixture containing 1% O2, 5% CO2, and 94% N2 at 37° C. for the indicated time. Bright live cells were counted daily in a hemacytometer using trypan blue dye to exclude dead cells. All cells were grown at a concentration of 10^5 cells/ml. All drugs treatment began at day 0.
siRNAs targeting human LDHA (ON-TARGETplus SMARTpool) were purchased from Dharmacon Research Inc. Targeting sequences for LDHA were a pool of the following four target sequences: sequence 1, […]; sequence 2, […]; sequence 3, […]; sequence 4, […]. Accordingly, one of skill in the art would recognize the siRNA sequences corresponding to these targets. For P493 human lymphoma B cells, transfection of siRNAs was performed using an Amaxa Nucleotransfection device according to the manufacturer's instructions. Briefly, 2 μg siLDHA ON-TARGETplus SMARTpool or ON-TARGETplus Non-targeting Pool (Dharmacon Research Inc.) were transfected into 2×10^6 cells at 0 hours. […]. The remaining cells were harvested for immunoblot analysis. For P198 human pancreatic cancer cells, transfection of siRNAs was performed using X-tremeGENE siRNA Transfection Reagent (Roche) according to the manufacturer's instructions.

LDHA [8] = biological target: T1, LDHA; details: cited from earlier work
[9] = biological target: purified human liver LDHA (Homo sapiens, UniProt P00338); experiment: Determination of Ki and enzyme kinetics of LDHA
Protocol: The reaction velocity of purified human LDHA or GAPDH was determined by a decrease or increase in absorbance at 340 nm of NADH, respectively. […] The GADPH activity was assessed using the protocol described in Worthington Enzyme Manual: http://www.worthington-biochem.com/GAPD/assay.html with varying concentrations of NAD^+. Ki values were determined from double-reciprocal plots by linear regression analysis using SigmaPlot Enzyme Kinetic software.

P493 cells [10] = experiment: Annexin V / 7-AAD cell death assay; type: cell-based, human; details: NAC 20 mM at 24 hours post-transfection

CCCOc1ccccc1-c1nc2nn[nH]c2c(=O)[nH]1 [Zaprinast]
LDHA inhibition in screen (LDHA [1]): weak LDHA inhibitor

O=C(/C=C/c1cccnc1)NCCCCC1CCN(C(=O)c2ccccc2)CC1 [FK866, reference compound]
AMP kinase (AMPK) activation (AMP kinase (AMPK)): activation | kidney (BUN, creatinine) or liver (aspartate aminotransferase, alanine aminotransferase, alkaline phosphatase) toxicity by blood chemistries ([2]; doses that affected tumor growth in vivo): did not reveal any evidence | hematology (cytopenia) ([2]; single agent, five animals studied): mild thrombocytopenia | ATP levels (P493 cells [3]): decrease in ATP levels | mitochondrial membrane potential (P493 cells [4]): decreased | ROS production (P493 cells [5]; 9 μM FX11 or FK866, 24 hours): increased ROS production | tumor growth of established P493 lymphoma xenografts [6]: cytostatic outcome | proliferation of P493 cells ([7]; single agent): diminished proliferation

CCCc1c(O)c(O)c(C(=O)O)c2cc(C)c(C)cc12 [E, 2,3-dihydroxy-6-methyl-7-(methyl)-4-propylnaphthalene-1-carboxylic acid, reference compound]
LDHA inhibitory activity (LDHA [8]): lower inhibitory activity versus FX11 | Ki [9]: > 90 µM | mode of inhibition of LDHA ([9]; NADH as substrate, Lineweaver-Burk plots): competitive inhibitors | tumor growth of established P493 lymphoma xenografts [6]: no detectable anti-tumor activity

CC(=O)N[C@@H](CS)C(=O)O [NAC, N-acetylcysteine, reference compound]
effect on cell death of siRNA-transfected cells (P493 cells [10]): partially reduced cell death | effect on ROS induced by LDHA siRNA (P493 cells [5]; cells exposed to NAC): attenuated | effect on proliferation of P493 cells treated with either FX11 or FK866 ([7]; 20 mM NAC): partially rescue | effect on cell proliferation of siRNA-transfected cells ([7]; NAC 20 mM at 24 hours post-transfection): partial rescue of cell proliferation
